Laboratory results published in the NIST ThermoML archive (doi:10.1016/j.fluid.2015.03.048).

Assay: xn = mol fraction of the nth substance listed
Details: 303.15 K, 100 kPa, Liquid; for viscosity: Capillary tube (Ostwald / Ubbelohde) method; for excess molar volume: Direct dilatometry; for speed of sound: Frequency=3 MHz, Sing-around technique in a fixed-path interferometer; for mass density: Pycnometric method

Cc1cccc(Cl)c1 [3-chlorotoluene] + CC(=O)N(C)C
Details | excess molar volume [m3/mol] | mass density [kg/m3] | speed of sound [m/s] | viscosity [mPa·s]
x2 = 0.0671 | – | 1063.49 | 1298 | –
x2 = 0.0838 | -1e-08 | – | – | 0.783
x2 = 0.1003 | – | 1059.19 | 1307 | –
x2 = 0.1242 | -1.4e-08 | – | – | 0.786
x2 = 0.1481 | – | 1053.01 | 1317 | –
x2 = 0.1735 | – | 1049.73 | 1322 | –
x2 = 0.1811 | -2e-08 | – | – | 0.789
x2 = 0.2107 | -2.3e-08 | – | – | 0.805
x2 = 0.2255 | – | 1042.98 | 1333 | –
x2 = 0.2658 | – | 1037.75 | 1343 | –
x2 = 0.2702 | -2.7e-08 | – | – | 0.811
x2 = 0.3152 | -3e-08 | – | – | 0.817
x2 = 0.3343 | – | 1028.85 | 1356 | –
x2 = 0.3595 | – | 1025.57 | 1362 | –
x2 = 0.3897 | -3.5e-08 | – | – | 0.823
x2 = 0.4165 | -3.6e-08 | – | – | 0.828
x2 = 0.4436 | – | 1014.58 | 1378 | –
x2 = 0.4865 | – | 1008.96 | 1385 | –
x2 = 0.5035 | -3.7e-08 | – | – | 0.832
x2 = 0.5465 | -3.6e-08 | – | – | 0.837
x2 = 0.5673 | – | 998.38 | 1399 | –
x2 = 0.6251 | -3.4e-08 | – | – | 0.841
x2 = 0.6638 | – | 985.69 | 1412 | –
x2 = 0.7042 | – | 980.38 | 1416 | –
x2 = 0.7152 | -2.8e-08 | – | – | 0.846
x2 = 0.7517 | -2.5e-08 | – | – | 0.85
x2 = 0.7822 | – | 970.1 | 1424 | –
x2 = 0.8204 | -1.9e-08 | – | – | 0.855
x2 = 0.9182 | – | 952.18 | 1440 | –
x2 = 0.9345 | -9e-09 | – | – | 0.86

Clc1ccc(Cl)c(Cl)c1 [1,2,4-trichlorobenzene] + CC(=O)N(C)C
Details | excess molar volume [m3/mol] | mass density [kg/m3] | speed of sound [m/s] | viscosity [mPa·s]
x2 = 0.0697 | – | 1407.11 | 1289 | –
x2 = 0.0921 | 2.1e-08 | – | – | 1.608
x2 = 0.1026 | – | 1390.55 | 1299 | –
x2 = 0.1341 | 3.1e-08 | – | – | 1.578
x2 = 0.1407 | – | 1371.4 | 1308 | –
x2 = 0.1758 | – | 1353.78 | 1316 | –
x2 = 0.1815 | 4.3e-08 | – | – | 1.523
x2 = 0.2103 | – | 1336.46 | 1325 | –
x2 = 0.2241 | 5.2e-08 | – | – | 1.474
x2 = 0.2601 | – | 1311.41 | 1336 | –
x2 = 0.265 | 6.1e-08 | – | – | 1.445
x2 = 0.3225 | 7.4e-08 | – | – | 1.403
x2 = 0.3592 | – | 1261.63 | 1354 | –
x2 = 0.4015 | – | 1240.42 | 1365 | –
x2 = 0.4257 | – | 1228.27 | 1368 | –
x2 = 0.4315 | 9.5e-08 | – | – | 1.383
x2 = 0.476 | 9.9e-08 | – | – | 1.353
x2 = 0.4786 | – | 1201.84 | 1378 | –
x2 = 0.501 | 1e-07 | – | – | 1.284
x2 = 0.5539 | – | 1164.24 | 1391 | –
x2 = 0.5542 | 9.7e-08 | – | – | 1.292
x2 = 0.6271 | 8.8e-08 | – | – | 1.205
x2 = 0.6383 | – | 1122.13 | 1405 | –
x2 = 0.705 | 7.3e-08 | – | – | 1.197
x2 = 0.7344 | – | 1074.16 | 1419 | –
x2 = 0.7519 | – | 1065.39 | 1420 | –
x2 = 0.7892 | 5.5e-08 | – | – | 1.152
x2 = 0.8041 | 5.2e-08 | – | – | 1.096
x2 = 0.9052 | – | 988.77 | 1440 | –
x2 = 0.9282 | 2.2e-08 | – | – | 1.088
